Source: ChEMBL document CHEMBL4665802, “Design, Synthesis, and Structure-Activity Relationships of Indoline-Based Kelch-like ECH-Associated Protein 1-Nuclear Factor (Erythroid-Derived 2)-Like 2 (Keap1-Nrf2) Protein-Protein Interaction Inhibitors” (J Med Chem, 2020)
The source made the active and inactive calls. The calls are words filed in the database; no cut-off is given here.

Key:
H9c2 [1] = test: Antioxidant activity against LPS-induced injury in rat H9c2 cells assessed as increase in GSH/GSSG ratio at 0.1 to 10 uM pretreated for 12 hrs followed by LPS addition measured after 12 hrs; type: functional, cell-based; details: dose microM 0.1-10, time 24.0 hrs
[2] = Permeability of the compound at pH 7.4 incubated for 4 hrs by PAMPA; type: ADME; details: read-out: permeability
[3] = target: T1, KEAP1/NRF2 (Rattus norvegicus) (UniProt O54968+P57790); test: Inhibition of Keap1-Nrf2 protein-protein interaction in rat H9c2 cells assessed as upregulation of NQO1 mRNA expression at 10 uM incubated for 4 to 24 hrs by Trizol reagent based qRT-PCR analysis; type: cell-based; details: time hrs 4-24
CYP2D6 = CYP2D6 (Homo sapiens, UniProt P10635); test: Inhibition of CYP2D6 (unknown origin) at 10 uM using promethazine as substrate preincubated for 5 mins followed by NADPH addition and measured after 20 mins by LC-MS/MS analysis relative to control; type: ADME; details: probe promethazine
CYP2D6, sequence (P10635 whole entry): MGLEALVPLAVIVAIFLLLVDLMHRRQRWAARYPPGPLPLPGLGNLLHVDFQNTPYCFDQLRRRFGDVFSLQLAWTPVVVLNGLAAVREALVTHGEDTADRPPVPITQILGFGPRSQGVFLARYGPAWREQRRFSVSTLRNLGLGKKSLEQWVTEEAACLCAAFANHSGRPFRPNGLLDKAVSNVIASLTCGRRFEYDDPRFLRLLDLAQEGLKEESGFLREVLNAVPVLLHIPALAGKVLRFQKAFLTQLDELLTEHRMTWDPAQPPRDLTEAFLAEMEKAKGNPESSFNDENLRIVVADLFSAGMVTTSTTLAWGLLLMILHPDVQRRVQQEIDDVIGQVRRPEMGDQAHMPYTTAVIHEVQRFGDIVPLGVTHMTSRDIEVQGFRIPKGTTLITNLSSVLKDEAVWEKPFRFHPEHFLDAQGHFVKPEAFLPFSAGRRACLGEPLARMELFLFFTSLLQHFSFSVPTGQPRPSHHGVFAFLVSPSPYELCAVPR

[4] = Metabolic stability in human liver microsome assessed as parent compound remaining at 1 uM preincubated for 5 mins followed by NADPH addition and measured after 45 mins by LC-MS/MS analysis; type: ADME; details: liver microsomes, time 50 min, read-out: Stabilty
Mus musculus [5] = test: Antiinflammatory activity in LPS-stimulated sepsis in C57BL/6 mouse assessed as decrease in IL-6 levels at 10 mg/kg, ip qd administered for 3 days prior to LPS stimulation and measured after 12 hrs by ELISA; type: functional, organism-based; details: time 3.5 day
Mus musculus [6] = test: Cardioprotective activity in LPS-stimulated sepsis in C57BL/6 mouse assessed as reduction in heart tissue damage at 10 mg/kg, ip qd administered for 3 days prior to LPS stimulation and measured after 12 hrs by hematoxylin and eosin staining based microscopy; type: functional, organism-based; details: time 3.5 day
[7] = MRT (0 to infinity) in rat at 5 mg/kg, iv by LC-MS/MS analysis; type: ADME, organism-based; details: in vivo
[8] = target: T1, KEAP1/NRF2 (Rattus norvegicus); test: Inhibition of Keap1-Nrf2 protein-protein interaction in rat H9c2 cells assessed as upregulation of HO1 mRNA expression at 10 uM incubated for 4 to 24 hrs by Trizol reagent based qRT-PCR analysis; type: cell-based; details: time hrs 4-24
Mus musculus [9] = test: Antiinflammatory activity in LPS-stimulated sepsis in C57BL/6 mouse assessed as decrease in TNFalpha levels at 10 mg/kg, ip qd administered for 3 days prior to LPS stimulation and measured after 12 hrs by ELISA; type: functional, organism-based; details: time 3.5 day
H9c2 [10] = test: Antiinflammatory activity against LPS-induced sepsis in rat H9c2 cells assessed as decrease in secretion of IL-6 at 1 to 10 uM pretreated for 12 hrs followed by LPS addition measured after 12 hrs by sandwich ELISA; type: functional, cell-based; details: dose microM 1-10, time 24.0 hrs
H9c2 [11] = test: Upregulation of Nrf2 protein levels in rat H9c2 cells incubated for 12 hrs by Western blot analysis; type: functional, cell-based; details: dose microM 0.1-10, time 12.0 hrs
[12] = Intrinsic clearance in human liver microsome at 1 uM preincubated for 5 mins followed by NADPH addition and measured after 45 mins by LC-MS/MS analysis; type: ADME; details: microsomes, 0.75 h
[13] = Half-life in rat at 5 mg/kg, iv by LC-MS/MS analysis; type: ADME, organism-based; details: in vivo
[14] = target: T1, KEAP1/NRF2 (Rattus norvegicus); test: Inhibition of Keap1-Nrf2 protein-protein interaction in rat H9c2 cells assessed as upregulation of GCLM mRNA expression incubated for 12 hrs by Trizol reagent based qRT-PCR analysis; type: cell-based; details: dose microM 0.1-10, time 12.0 hrs
H9c2 [15] = test: Upregulation of Nrf2 protein levels in rat H9c2 cells at 10 uM incubated up to 24 hrs by Western blot; type: functional, cell-based; details: time hrs <=24
[16] = AUC (0 to infinity) in rat at 5 mg/kg, iv by LC-MS/MS analysis; type: ADME, organism-based; design: time infinity, route intravenous, dose 5 mg/kg; details: in vivo
[17] = Apparent clearance in rat at 5 mg/kg, iv by LC-MS/MS analysis; type: ADME, organism-based; details: in vivo
Mus musculus [18] = test: Upregulation of GCLM expression in LPS-stimulated C57BL/6 mouse model of sepsis at 10 to 40 mg/kg, ip qd administered for 3 days prior to LPS stimulation and measured after 12 hrs by Western blot analysis; type: functional, organism-based; details: dose mg/kg 10-40, time 3.5 day
[19] = target: T1, KEAP1/NRF2 (Rattus norvegicus); test: Inhibition of Keap1-Nrf2 protein-protein interaction in rat H9c2 cells assessed as upregulation of HO1 expression at 10 uM incubated up to 24 hrs by Western blot; type: cell-based; details: time hrs <=24
H9c2 [20] = test: Antiinflammatory activity against LPS-induced sepsis in rat H9c2 cells assessed as decrease in secretion of IL-1beta at 1 to 10 uM pretreated for 12 hrs followed by LPS addition measured after 12 hrs by sandwich ELISA; type: functional, cell-based; details: dose microM 1-10, time 24.0 hrs
H9c2 [21] = test: Upregulation of Nrf2 mRNA expression in rat H9c2 cells incubated for 12 hrs by Trizol reagent based qRT-PCR analysis; type: functional, cell-based; details: dose microM 0.1-10, time 12.0 hrs
H9c2 [22] = test: Upregulation of Nrf2 mRNA expression in rat H9c2 cells at 10 uM incubated for 4 to 24 hrs by Trizol reagent based qRT-PCR analysis; type: functional, cell-based; details: time hrs 4-24
[23] = target: T1, KEAP1/NRF2 (Rattus norvegicus); test: Inhibition of Keap1-Nrf2 protein-protein interaction in rat H9c2 cells assessed as upregulation of NQO1 expression at 10 uM incubated up to 24 hrs by Western blot; type: cell-based; details: time hrs <=24
[24] = target: T1, KEAP1/NRF2 (Rattus norvegicus); test: Inhibition of Keap1-Nrf2 protein-protein interaction in rat H9c2 cells assessed as upregulation of GCLM mRNA expression at 10 uM incubated for 4 to 24 hrs by Trizol reagent based qRT-PCR analysis; type: cell-based; details: time hrs 4-24
Mus musculus [25] = test: Antioxidant activity against LPS-induced injury in C57BL/6 mouse assessed as reduction in ROS levels at 10 to 40 mg/kg, ip qd administered for 3 days prior to LPS stimulation and measured after 12 hrs by H2DCFDA probe based flow cytometry; type: functional, organism-based; details: dose mg/kg 10-40, time 3.5 day

- Papp at 4 h [2]: 5.27 ×10⁻⁶ cm/s
- inhibition [3]: Active
- inhibition at 20 min, 10 µM (CYP2D6): 19.9%
- remaining at 0.75 h, 1 µM [4]: 74.4%
- MRT inf [7]: 1.1 h
- inhibition [8]: Active
- CLH [12]: 11.4 mL/min/kg
- half-life [13]: 4.02 h
- inhibition [14]: Dose-dependent effect
- AUC(0-inf) [16]: 47000 ng·h/mL
- clearance [17]: 1.83 mL/min/kg
- inhibition [19]: Active
- inhibition [23]: Active
- inhibition [24]: Active
SMILES: COc1ccc(S(=O)(=O)NC(=O)CN(c2cccc3c2CCN3C(C(=O)NS(=O)(=O)c2ccc(C)cc2OC)c2cccc(OC)c2)S(=O)(=O)c2ccc(OC)cc2)cc1 (stereo unspecified)
- Activity (H9c2 [1]): Active
- Activity (Mus musculus [5]): Active
- Activity (Mus musculus [6]): Active
- Activity (Mus musculus [9]): Active
- Activity (H9c2 [10]): Active
- Activity (H9c2 [11]): Dose-dependent effect
- Activity (H9c2 [15]): Active
- Activity (Mus musculus [18]): Active
- Activity (H9c2 [20]): Active
- Activity (H9c2 [21]): Dose-dependent effect
- Activity (H9c2 [22]): Active
- Activity (Mus musculus [25]): Active
